Key:
[1] = tested on: Foxp3+GFP+ and Foxp3-GFP- T cells; experiment: Foxp3 expression (GFP reporter) and IL-6 production in Foxp3+ and Foxp3- T cells under stimulation; assay type: cell-based, mouse
Experimental: In order to study the effect of stimulation conditions on Foxp3 expression, T cells were from mice having a reporter construct introduced into the FOXP3 locus (Betteli et al., 2006, Nature 441:235-238) by sorting cells based on the GFP-reporter construct. The reporter construct expresses both Fox3p and the fluorescent protein GFP. T cells that are Foxp3^− (i.e. GFP^−) and T cells that are Foxp3^+ (i.e. GFP^+) were isolated (FIG. 21A). Foxp3 expression was then assessed under different stimulation conditions, […]

activated CD4+ T cells = experiment: Absolute live CD4+ T cell counts by FACS; assay type: cell-based, mouse; conditions: up to 72 hours following activation with plate-bound anti-CD3 plus anti-CD28; relative to untreated cultures (FIG. 3C)
Experimental: (§1) Following activation, purified CD4^+ T cells were washed twice in PBS and replated in culture medium at 10^6/ml. Cultures were left untreated or treated with either TLR ligands and/or inhibitors for indicated times and concentrations. Following incubation, CD4^+ T cells were washed twice in PBS/2% FBS and stained with CD4-allophycocyanin monoclonal antibody and 7-aminoactinomycin D (7-AAD; BD PharMingen) or annexin (BD PharMingen) and survival was assessed by exclusion of either of these two stains. For absolute live cell counts 50,000 CD45.1^+ splenocytes labeled with anti-CD45.1-PE monoclonal antibody (A20; BD PharMingen) were also added to stained CD4^+ T cell sample FACS tubes just before FACS analysis. Live CD4^+ T cell counts were calculated by taking the ratio of the number of CD4^+CD45.1^−7-ADD^− events collected to the number CD45.1^+ events collected and multiplying by 50,000. Proliferation was measured by CFSE dye dilution as previously described (Wells et al., 1997 J. Clin. Invest. 100:3173).
Since percentage survival measurements may not be reflective of viable CD4^+ T cell numbers in vitro, absolute live cell number counts were quantified for periods up to 72 hours following activation of FACS sorted CD4^+ T cells with plate-bound anti-CD3 plus anti-CD28 monoclonal antibodies (FIGS. 3C).

[2] = tested on: activated DO11.10 CD4+ T cells; experiment: Adoptive transfer and ex vivo proliferation analysis; assay type: in vivo, mouse
Experimental: Five million purified DO11.10 CD4^+ T cells were activated by pOVA-pulsed APCs (1 μg/ml), purified with magnetic beads, treated with poly(I:C) (90 μg/ml), CpG DNA (30 μM), LPS (100 ng/ml), or left untreated for 16 hours, washed in PBS twice, and then adoptively transferred into BALB/c hosts. At day 30, spleen and peripheral lymph nodes were harvested and stained with anti-CD4 monoclonal antibody and the DO11.10 clonotypic monoclonal antibody KJI-26. Survival of activated DO11.10 CD4^+ T cells in each host was determined by FACS analysis and is expressed as a percent with respect to the total number of CD4^+ T cells found in either the host spleen or lymph nodes along with a mean (thick line) for each treatment group. […] [^3H]Thymidine was added to cultures for an additional 8 hour and read on a beta scintillation counter and is expressed as a mean for each treatment group ±SEM.
To address this question, DO11.10 CD4^+ T cells were first activated with pOVA-pulsed APCs, purified by magnetic beads, treated with TLR ligands for 16 hours, washed, and then adoptively transferred into congenic BALB/c hosts. Survival and ex vivo proliferative responses were assessed 30 days later (FIGS. 5A and 5B). […]

[3] = tested on: activated DO11.10 CD4+ T cells; experiment: Proliferation by CFSE dye dilution; assay type: cell-based, mouse; conditions: 72 hours following activation; relative to untreated activated controls (FIG. 3D)
Experimental: as §1, with “For absolute live cell counts 50,000 CD45.1^+ splenocytes labeled with anti-CD45.1-PE monoclonal antibody (A20; BD PharMingen) were also added to stained CD4^+ T cell sample FACS tubes just before FACS analysis.” left out
Without wishing to be bound by any particular theory, the increases in live cells numbers observed could be explained by TLR ligand-mediated increases in CD4^+ T cell proliferation. […] To address this issue, CFSE-labeled DO11.10 CD4^+ T cells were first activated by pOVA-pulsed APCs for 16 hours, purified by magnetic beads, and then treated with TLR ligands and assessed for proliferation 72 hours following activation (FIG. 3D).

poly(I:C)
Foxp3 expression in Foxp3+GFP+ cells (natural Tregs) ([1]; activated by anti-CD3 plus TLR ligand (FIG. 21B)): maintained Foxp3 expression | Foxp3 expression in Foxp3-GFP- cells (non-regulatory T cells) ([1]; stimulation with anti-CD3 and anti-CD28 antibodies and TGF-b, with additions (FIG. 22)): augmented | live CD4+ T cell numbers (activated CD4+ T cells): concordant increases | increase in percentage of recovered DO11.10 CD4+ T cells in host spleen ([2]; day 30 after adoptive transfer into BALB/c hosts, cells treated 16 hours before transfer, vs LPS-treated or untreated cells (FIG. 5A)): ~2 fold | increase in proliferative response to pOVA of splenic CD4+ T cells ([2]; ex vivo, day 30, vs hosts that received LPS-treated or untreated cells (FIG. 5B)): 2 fold | proliferation of activated CD4+ T cells [3]: did not enhance proliferation

Source: patent US20090220528A1, “Stimulation of Toll-Like Receptors on T Cells” (THE TRUSTEES OF THE UNIVERISTY OF PENNSYLVANIA CNETER FOR …, priority 2005, published 2009)
